{
  "source": "ChEMBL document CHEMBL1146781",
  "about": "“Structural differences between paroxetine and femoxetine responsible for differential inhibition of Staphylococcus aureus efflux pumps” (2004)",
  "key": {"Staphylococcus aureus [1]": {"test_system": "Staphylococcus aureus", "assay": "Minimum inhibitory concentration (MIC) against Staphylococcus aureus 1199B; Range 50 - 6.3 ug/mL", "format": "functional"}, "Staphylococcus aureus [2]": {"test_system": "Staphylococcus aureus", "assay": "Minimum inhibitory concentration (MIC) against Staphylococcus aureus K2068; Range 12.5 1.6 ug/mL", "format": "functional"}, "Staphylococcus aureus [3]": {"test_system": "Staphylococcus aureus", "assay": "Concentration required to reduce Minimum inhibitory concentration (MIC) of Norfloxacin against Staphylococcus aureus 1199B by 8 folds", "format": "functional, organism-based"}, "Staphylococcus aureus [4]": {"test_system": "Staphylococcus aureus", "assay": "Concentration required to reduce Minimum inhibitory concentration (MIC) of Norfloxacin against Staphylococcus aureus 1199B by 4 folds", "format": "functional, organism-based"}, "Staphylococcus aureus [5]": {"test_system": "Staphylococcus aureus", "assay": "Percent inhibition of EtBr efflux against Staphylococcus aureus 1199B at 50 concentration", "format": "functional"}},
  "data": [
    {"smiles": "CCn1cc(C(=O)O)c(=O)c2cc(F)c(N3CCNCC3)cc21", "note": "[NORFLOXACIN]", "values": [
      {"measurement": "MIC", "setting": "Staphylococcus aureus [1]", "result": 50, "unit": "µg/mL"},
      {"measurement": "MIC", "setting": "Staphylococcus aureus [2]", "result": 12.5, "unit": "µg/mL"}
    ]},
    {"smiles": "Fc1ccc([C@H]2CCNC[C@@H]2COc2ccc3c(c2)OCO3)cc1", "values": [
      {"measurement": "Concentration", "setting": "Staphylococcus aureus [3]", "result": 20, "unit": "µg/mL"}
    ]},
    {"smiles": "COC(=O)[C@H]1[C@H]2C[C@@H]3c4[nH]c5cc(OC)ccc5c4CCN3C[C@H]2C[C@@H](OC(=O)c2cc(OC)c(OC)c(OC)c2)[C@@H]1OC", "values": [
      {"measurement": "Concentration", "setting": "Staphylococcus aureus [4]", "result": 20, "unit": "µg/mL"}
    ]},
    {"smiles": "Fc1ccc([C@@H]2CCNC[C@H]2COc2ccc3c(c2)OCO3)cc1", "values": [
      {"measurement": "Concentration", "setting": "Staphylococcus aureus [3]", "result": 25, "unit": "µg/mL"}
    ]},
    {"smiles": "CN1CC[C@@H](c2ccc(F)cc2)[C@H](COc2ccc3c(c2)OCO3)C1", "values": [
      {"measurement": "Inhibition", "setting": "Staphylococcus aureus [5]", "result": "~50", "unit": "%"}
    ]}
  ]
}
